Data: ChEMBL document CHEMBL3885861, “Open TG-GATES”

Species on record: Rattus norvegicus
Assay: Open TG-GATES - Regimen: Daily Repeat
Type: toxicity, organism-based, Sprague-Dawley
Parameters: regimen Daily Repeat, gender Male, age 6 weeks
Settings: in vivo, po, 80 mg/kg, route gavage, dose level Middle; for APTT / Bas / Eos / Fbg / Hb / Ht / Lym / MCH / MCHC / MCV / Mono / Neu / PT / Plat / RBC / Ret / WBC: tissue Blood; for KIDNEY_L / KIDNEY_R / KIDNEY_TOTAL: tissue Kidney; for LIVER: tissue Liver; for A/G / ALP / ALT / AST / BUN / CRE / Ca / Cl / DBIL / GLC / IP / K / LDH / Na / PL / RALB / TBIL / TC / TG / TP / gamma-GTP: tissue Plasma

## CCSCC[C@H](N)C(=O)O [ETHIONINE]
72 h, time 3 day
  TERMINAL_BW: 221.5 g
  APTT: 24.9 s
  Bas: 0%
  Eos: 1%
  Fbg: 201 mg/dL
  Hb: 14 g/dL
  Ht: 41.5%
  Lym: 85.4%
  MCH: 20.9 pg
  MCHC: 33.7%
  MCV: 62.1 fL
  Mono: 2.8%
  Neu: 9.6%
  PT: 15.3 s
  Plat: 123 x10_4/uL
  RBC: 669.2 x10_4/ul
  Ret: 4.8%
  WBC: 93.2 x10_2/uL
  KIDNEY_L: 1 g
  KIDNEY_R: 1 g
  KIDNEY_TOTAL: 2 g
  LIVER: 9.7 g
  A/G: 1.8
  ALP: 983 IU/L
  ALT: 37.8 IU/L
  AST: 65.6 IU/L
  BUN: 17.2 mg/dL
  CRE: 0.4 mg/dL
  Ca: 10.5 mg/dL
  Cl: 102 meq/L
  DBIL: 0.088 mg/dL
  GLC: 197.8 mg/dL
  IP: 8.2 mg/dL
  K: 3.8 meq/L
  LDH: 211 IU/L
  Na: 141.6 meq/L
  PL: 118.2 mg/dL
  RALB: 3.6 g/dL
  TBIL: 0.2 mg/dL
  TC: 47.2 mg/dL
  TG: 94.8 mg/dL
  TP: 5.7 g/dL
  gamma-GTP: 1.2 IU/L
[…], time 7 day
  TERMINAL_BW: 252.3 g
  APTT: 25.7 s
  Bas: 0%
  Eos: 0.8%
  Fbg: 216.4 mg/dL
  Hb: 14.2 g/dL
  Ht: 41.8%
  Lym: 81.8%
  MCH: 20.8 pg
  MCHC: 33.9%
  MCV: 61.4 fL
  Mono: 2%
  Neu: 14.4%
  PT: 15 s
  Plat: 120.9 x10_4/uL
  RBC: 681.2 x10_4/ul
  Ret: 3.1%
  WBC: 117.7 x10_2/uL
  KIDNEY_L: 1.1 g
  KIDNEY_R: 1.1 g
  KIDNEY_TOTAL: 2.2 g
  LIVER: 10.5 g
  A/G: 1.8
  ALP: 1213.6 IU/L
  ALT: 37.4 IU/L
  AST: 68.6 IU/L
  BUN: 17.6 mg/dL
  CRE: 0.4 mg/dL
  Ca: 10.4 mg/dL
  Cl: 103.6 meq/L
  DBIL: 0.1 mg/dL
  GLC: 186.6 mg/dL
  IP: 7.3 mg/dL
  K: 3.8 meq/L
  LDH: 193.2 IU/L
  Na: 141.6 meq/L
  PL: 126.6 mg/dL
  RALB: 3.6 g/dL
  TBIL: 0.2 mg/dL
  TC: 46.4 mg/dL
  TG: 122.6 mg/dL
  TP: 5.5 g/dL
  gamma-GTP: 0.8 IU/L
[…], time 14 day
  TERMINAL_BW: 307.2 g
  APTT: 24 s
  Bas: 0%
  Eos: 1%
  Fbg: 214.6 mg/dL
  Hb: 14.4 g/dL
  Ht: 42%
  Lym: 73%
  MCH: 20.3 pg
  MCHC: 34.1%
  MCV: 59.4 fL
  Mono: 3%
  Neu: 23%
  PT: 14.2 s
  Plat: 121.6 x10_4/uL
  RBC: 708.4 x10_4/ul
  Ret: 4.1%
  WBC: 143.7 x10_2/uL
  KIDNEY_L: 1.2 g
  KIDNEY_R: 1.2 g
  KIDNEY_TOTAL: 2.3 g
  LIVER: 13.2 g
  A/G: 1.8
  ALP: 894 IU/L
  ALT: 33 IU/L
  AST: 58 IU/L
  BUN: 16.6 mg/dL
  CRE: 0.4 mg/dL
  Ca: 10.4 mg/dL
  Cl: 102.4 meq/L
  DBIL: 0.098 mg/dL
  GLC: 201.8 mg/dL
  IP: 7.3 mg/dL
  K: 3.4 meq/L
  LDH: 187.8 IU/L
  Na: 141.4 meq/L
  PL: 141.8 mg/dL
  RALB: 3.8 g/dL
  TBIL: 0.2 mg/dL
  TC: 55.4 mg/dL
  TG: 128 mg/dL
  TP: 5.9 g/dL
  gamma-GTP: 0.8 IU/L
[…], time 28 day
  TERMINAL_BW: 355.5 g
  APTT: 23.9 s
  Bas: 0%
  Eos: 0.6%
  Fbg: 197 mg/dL
  Hb: 15 g/dL
  Ht: 43.1%
  Lym: 78.6%
  MCH: 19.7 pg
  MCHC: 34.9%
  MCV: 56.3 fL
  Mono: 2.4%
  Neu: 17.6%
  PT: 14.6 s
  Plat: 114.3 x10_4/uL
  RBC: 765.2 x10_4/ul
  Ret: 1.8%
  WBC: 115.9 x10_2/uL
  KIDNEY_L: 1.3 g
  KIDNEY_R: 1.3 g
  KIDNEY_TOTAL: 2.7 g
  LIVER: 14.1 g
  A/G: 1.7
  ALP: 747.8 IU/L
  ALT: 30.2 IU/L
  AST: 55.8 IU/L
  BUN: 19.4 mg/dL
  CRE: 0.5 mg/dL
  Ca: 10.2 mg/dL
  Cl: 105.8 meq/L
  DBIL: 0.1 mg/dL
  GLC: 187.4 mg/dL
  IP: 6.7 mg/dL
  K: 3.7 meq/L
  LDH: 220.4 IU/L
  Na: 142.6 meq/L
  PL: 138.6 mg/dL
  RALB: 3.8 g/dL
  TBIL: 0.2 mg/dL
  TC: 57.4 mg/dL
  TG: 124 mg/dL
  TP: 6 g/dL
  gamma-GTP: 1 IU/L
